How the values were obtained:
HeLa [1] = experiment: Drug uptake in human HeLa cells at 5 uM after 2 hrs by fluorescence microscopic analysis; type: ADME, cell-based
HeLa [2] = experiment: Drug uptake in human HeLa cells measured immediately; type: ADME, cell-based

Drug uptake (HeLa [1]): Active | Drug uptake (HeLa [2]): Active
Compound: Cn1ccc2ccc(-c3ccc4c(-c5ccccc5C(=O)O)c5ccc(=O)cc-5oc4c3)cc21

— ChEMBL document CHEMBL2069247, “A highly sensitive fluorescent viscosity sensor” (Bioorg Med Chem Lett, 2012)
